Source: patent US8889721B2, “Clothianidin, metofluthrin, and piperonyl butoxide mixture for bed bug control” (priority 2012, dated 2014)

Tests used:
Harlan-strain bed bugs = experiment: Residual exposure to mixtures on wood panels, mortality/morbidity and knockdown (Example 7); format: in vivo, Cimex lectularius; settings: for % Morbidity / % Mortality: Residual Efficacy at Day 30
Procedure: (§1) A bioassay was performed to determine the knockdown and mortality rates of bed bugs exposed to the residual of mixtures of clothianidin, metofluthrin, and PBO. Two bed bug (Cimex lectularius) strains were used; Harlan-strain which is susceptible to pyrethroids, and Winston Salem-strain which is known to have a 500-fold resistance level to deltamethrin. In this bioassay, a mixture of clothianidin, metofluthrin, and PBO with fumed silica was compared to combinations of clothianidin and metofluthrin, clothianidin and PBO, and clothianidin.
(§2) Unpainted wood was cut into 6 inch square panels and a DeVries spray booth was used to deliver 1 ml of test substance in an even spray that provided approximately 1 gal/1000 sq. ft. delivery rate. A cone jet nozzle was used approximately 12 inches directly above the wood panels. The panels were allowed to dry and then aged indoors in a climate controlled environment with temperatures ranging from approximately 65 to 72 degrees Fahrenheit. All tests were done in 4 replicates (40 total insects per treatment).
(§3) Insects were fed a blood meal the day prior to testing. The inner walls of Petri dishes were treated with Fluon to prevent the insects from attaching to the sides of the dishes during treatment.
(§4) On the day of testing, 10 insects were placed in each Petri dish. The bed bugs were separated with tweezers and observed to be healthy and active before treatments. The Petri dishes were inverted onto the treated surface and gentle tapping was sometimes used to dislodge the insects from the dishes. After 5 minutes, the insects were returned to containers for mortality/morbidity and knockdown observations.
(§5) Insects were considered moribund when they were knocked down and unable to right themselves when probed. Insects were considered dead when they had no body movement. Untreated controls were handled in the same manner except that they were exposed to water treated wood panels.
(§6) Insects were exposed to the wood panels on day 1 and day 30. Mortality and morbidity observations were taken until the untreated control mortality reached […] (day 7 following exposure).
(§7) The bed bugs were observed and recordings were taken at 10, 20, 30, 60 and 240 minutes following exposure to the wood panels. Table 4 provides the percentage of bed bugs from all 4 replicates (40 total insects per treatment) that were knocked down 10 and 240 minutes after exposure to the wood panels.

[1] = system: Winston Salem-strain bed bugs; experiment: as above; format: in vivo, Cimex lectularius
Procedure: as §1, §2, §3, §4, §5, §6, §7

[2] = Residual Efficacy at Day 1, 1 day
[3] = Residual Efficacy at Day 1, 2 day
[4] = Residual Efficacy at Day 1, 3 day
[5] = Residual Efficacy at Day 30, 1 DAT
[6] = Residual Efficacy at Day 30, 2 DAT
[7] = Residual Efficacy at Day 30, 3 DAT
[8] = Residual Efficacy at Day 30, 4 DAT
[9] = Residual Efficacy at Day 30, 5 DAT
[10] = Residual Efficacy at Day 30, 6 DAT
[11] = Residual Efficacy at Day 30, 7 DAT

CN/C(=N\[N+](=O)[O-])NCc1cnc(Cl)s1 [0.4% Cloth.]
Knockdown (Harlan-strain bed bugs; Day 1 @ 10 minutes): 48%
Knockdown (Harlan-strain bed bugs; Day 1 @ 240 minutes): 95%
Knockdown (Harlan-strain bed bugs; Day 30 @ 10 minutes): 20%
Knockdown (Harlan-strain bed bugs; Day 30 @ 240 min): 95%
% Morbidity (Harlan-strain bed bugs; 1 DAT): 75%
% Mortality (Harlan-strain bed bugs; 1 DAT): 23%
% Morbidity (Harlan-strain bed bugs; 2 DAT): 33%
% Mortality (Harlan-strain bed bugs; 2 DAT): 68%
% Morbidity (Harlan-strain bed bugs; 3 DAT): 0%
% Mortality (Harlan-strain bed bugs; 3 DAT): 100%
Knockdown ([1]; Day 1 @ 10 minutes): 0%
Knockdown ([1]; Day 1 @ 240 minutes): 50%
Knockdown ([1]; Day 30 @ 10 minutes): 3%
Knockdown ([1]; Day 30 @ 240 min): 28%
% Morbidity [1, 2]: 18%
% Mortality [1, 2]: 60%
% Mortality + Morbidity [1, 2]: 78%
% Morbidity [1, 3]: 18%
% Mortality [1, 3]: 60%
% Mortality + Morbidity [1, 3]: 78%
% Morbidity [1, 4]: 12.5%
% Mortality [1, 4]: 87.5%
% Mortality + Morbidity [1, 4]: 100%
% Morbidity [1, 5]: 33%
% Mortality [1, 5]: 10%
% Morbidity [1, 6]: 28%
% Mortality [1, 6]: 20%
% Morbidity [1, 7]: 18%
% Mortality [1, 7]: 43%
% Morbidity [1, 8]: 10%
% Mortality [1, 8]: 53%
% Morbidity [1, 9]: 8%
% Mortality [1, 9]: 63%
% Morbidity [1, 10]: 3%
% Mortality [1, 10]: 70%
% Morbidity [1, 11]: 5%
% Mortality [1, 11]: 70%
